Data reported in patent US9452986B2, “6-heteroaryloxy- or 6-aryloxy-quinoline-2-carboxamides and method of use” (AbbVie Inc., priority 2014, dated 2016).
Where two headings read alike, the source gives them in different places.

Biological target: recombinant human Nav1.7 (Homo sapiens (Human), UniProt Q15858)
Assay: FRET-based membrane potential assay, recombinant human sodium channel Nav1.7
Assay type: cell-based
Conditions: read-out: FRET-Membrane Potential Nav1.7 IC50
Procedure, shortened: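 Channel activation used veratridine at its EC80, set by a dilution curve each experiment, together with Leiurus scorpion venom, added 3 min after compound. Membrane-potential ratio signals from FLIPR Tetra in HEPES-buffered HBSS were fitted to a four-parameter Hill equation for percent inhibition and IC50.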

[1] = HEK293 cells stably expressing recombinant human Nav1.7, veratridine + scorpion venom depolarization

Chain of recombinant human Nav1.7 (Q15858 whole entry): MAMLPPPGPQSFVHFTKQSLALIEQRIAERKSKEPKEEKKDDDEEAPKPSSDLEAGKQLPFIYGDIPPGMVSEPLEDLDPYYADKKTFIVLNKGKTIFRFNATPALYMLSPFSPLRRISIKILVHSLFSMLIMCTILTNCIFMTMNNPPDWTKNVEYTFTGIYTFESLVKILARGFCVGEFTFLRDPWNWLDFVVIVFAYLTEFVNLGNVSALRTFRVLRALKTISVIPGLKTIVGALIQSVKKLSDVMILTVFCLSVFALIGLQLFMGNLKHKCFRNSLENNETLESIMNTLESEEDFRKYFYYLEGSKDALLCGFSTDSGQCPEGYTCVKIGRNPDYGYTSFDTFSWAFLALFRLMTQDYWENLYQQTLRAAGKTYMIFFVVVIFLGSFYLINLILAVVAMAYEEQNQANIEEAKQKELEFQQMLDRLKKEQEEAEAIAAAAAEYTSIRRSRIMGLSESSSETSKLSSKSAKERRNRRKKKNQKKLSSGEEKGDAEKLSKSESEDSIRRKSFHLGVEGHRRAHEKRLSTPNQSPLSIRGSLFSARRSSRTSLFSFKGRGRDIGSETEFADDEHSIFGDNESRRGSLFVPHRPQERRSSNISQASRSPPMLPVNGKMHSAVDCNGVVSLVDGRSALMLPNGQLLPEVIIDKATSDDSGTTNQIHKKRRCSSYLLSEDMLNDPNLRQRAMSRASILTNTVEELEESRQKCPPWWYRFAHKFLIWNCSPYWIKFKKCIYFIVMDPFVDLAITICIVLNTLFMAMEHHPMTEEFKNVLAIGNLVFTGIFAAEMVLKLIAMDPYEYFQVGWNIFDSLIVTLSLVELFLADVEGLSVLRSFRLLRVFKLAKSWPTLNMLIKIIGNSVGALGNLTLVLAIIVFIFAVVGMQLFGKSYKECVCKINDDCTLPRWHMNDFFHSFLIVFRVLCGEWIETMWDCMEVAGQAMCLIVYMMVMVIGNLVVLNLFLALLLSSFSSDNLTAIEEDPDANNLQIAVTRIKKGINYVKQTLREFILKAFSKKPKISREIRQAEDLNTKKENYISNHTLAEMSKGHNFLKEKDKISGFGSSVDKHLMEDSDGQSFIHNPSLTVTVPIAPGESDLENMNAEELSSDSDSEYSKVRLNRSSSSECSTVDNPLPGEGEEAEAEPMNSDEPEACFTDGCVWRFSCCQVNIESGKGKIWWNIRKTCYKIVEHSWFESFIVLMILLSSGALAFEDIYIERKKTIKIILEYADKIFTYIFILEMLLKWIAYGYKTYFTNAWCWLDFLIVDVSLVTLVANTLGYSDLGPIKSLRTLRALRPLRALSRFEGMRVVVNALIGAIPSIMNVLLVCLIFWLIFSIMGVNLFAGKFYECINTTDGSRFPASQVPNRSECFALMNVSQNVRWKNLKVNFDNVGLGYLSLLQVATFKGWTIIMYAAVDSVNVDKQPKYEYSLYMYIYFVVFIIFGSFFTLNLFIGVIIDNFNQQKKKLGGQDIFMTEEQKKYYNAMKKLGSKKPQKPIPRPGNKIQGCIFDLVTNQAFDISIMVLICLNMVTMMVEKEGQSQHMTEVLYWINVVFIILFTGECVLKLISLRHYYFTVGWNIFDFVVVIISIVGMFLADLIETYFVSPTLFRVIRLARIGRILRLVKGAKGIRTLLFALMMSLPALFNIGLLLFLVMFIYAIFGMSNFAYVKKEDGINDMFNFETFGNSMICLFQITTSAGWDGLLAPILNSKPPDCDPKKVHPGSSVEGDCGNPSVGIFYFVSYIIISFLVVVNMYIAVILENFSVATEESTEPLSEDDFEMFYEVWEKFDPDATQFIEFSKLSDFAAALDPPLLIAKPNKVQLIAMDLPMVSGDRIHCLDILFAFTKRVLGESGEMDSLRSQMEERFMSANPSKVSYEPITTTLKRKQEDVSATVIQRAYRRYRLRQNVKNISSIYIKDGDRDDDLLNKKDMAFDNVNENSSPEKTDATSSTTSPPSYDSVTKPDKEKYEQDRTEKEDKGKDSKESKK

Row | SMILES | IC50 [1] [µM] | IC50 [µM]
1 | O=C(NCCCN1CCCC1=O)c1ccc2cc(Oc3ccc(C(F)(F)F)cn3)ccc2n1 [Example 608, N-[3-(2-oxopyrrolidin-1-yl)propyl]-6-{[5-(trifluoromethyl)pyridin-2-yl]oxy}quinoline-2-carboxamide] | 2.7 | 
2 | O=C(NCCN1CCCCC1)c1ccc2cc(Oc3ccccn3)ccc2n1 [Example 79, N-[2-(piperidin-1-yl)ethyl]-6-(pyridin-2-yloxy)quinoline-2-carboxamide] |  | > 20
3 | O=C(NCC(=O)N1CCCC1)c1ccc2cc(Oc3ccc(C(F)(F)F)nc3)ccc2n1 [Example 513, N-[2-oxo-2-(pyrrolidin-1-yl)ethyl]-6-{[6-(trifluoromethyl)pyridin-3-yl]oxy}quinoline-2-carboxamide] |  | 0.911
4 | N[C@@H]1CCN(C(=O)c2ccc3cc(Oc4ccc(C(F)(F)F)cn4)ccc3n2)C1 [Example 310, [(3R)-3-aminopyrrolidin-1-yl](6-{[5-(trifluoromethyl)pyridin-2-yl]oxy}quinolin-2-yl)methanone] | 0.665 | 
5 | O=C(c1ccc2cc(Oc3ccc(C(F)(F)F)cn3)ccc2n1)N1CCC2(CCC2O)CC1 (stereo not drawn) [Example 341, (1-hydroxy-7-azaspiro[3.5]non-7-yl)(6-{[5-(trifluoromethyl)pyridin-2-yl]oxy}quinolin-2-yl)methanone] | 4.23 | 
6 | O=C1CN(C(=O)c2ccc3cc(Oc4ccc(C(F)(F)F)cn4)ccc3n2)CCCN1 [Example 343, 4-[(6-{[5-(trifluoromethyl)pyridin-2-yl]oxy}quinolin-2-yl)carbonyl]-1,4-diazepan-2-one] | > 20 | 
7 | N#Cc1ccc(Oc2ccc3nc(C(=O)N[C@@H]4CCOC4=O)ccc3c2)cc1 [Example 113, 6-(4-cyanophenoxy)-N-[(3R)-2-oxotetrahydrofuran-3-yl]quinoline-2-carboxamide] | 0.741 | 
8 | Cc1cc(C)nc(Oc2ccc3nc(C(=O)NC4CCS(=O)(=O)C4)ccc3c2)n1 (stereo not drawn) [Example 162, 6-[(4,6-dimethylpyrimidin-2-yl)oxy]-N-(1,1-dioxidotetrahydrothiophen-3-yl)quinoline-2-carboxamide] | > 20 | 
9 | N#Cc1ccc(Oc2ccc3nc(C(=O)Nc4nccs4)ccc3c2)cc1 [Example 88, 6-(4-cyanophenoxy)-N-(1,3-thiazol-2-yl)quinoline-2-carboxamide] | > 20 | 
10 | N#Cc1ccc(Oc2ccc3nc(C(=O)N4CCNCC4)ccc3c2)nc1 [Example 328, 6-{[2-(piperazin-1-ylcarbonyl)quinolin-6-yl]oxy}nicotinonitrile] | > 20 | 
11 | CNC(=O)C1CN(C(=O)c2ccc3cc(Oc4ccc(C(F)(F)F)cn4)ccc3n2)CCN1 (stereo not drawn) [Example 322, N-methyl-4-[(6-{[5-(trifluoromethyl)pyridin-2-yl]oxy}quinolin-2-yl)carbonyl]piperazine-2-carboxamide] |  | 12
12 | O=C(c1ccc2cc(Oc3ccc(C(F)(F)F)cn3)ccc2n1)N1CC[C@H](NS(=O)(=O)c2ccc(C(F)(F)F)cc2)[C@H]1c1ccccc1 [Example 225, N-{(2R,3S)-2-phenyl-1-[(6-{[5-(trifluoromethyl)pyridin-2-yl]oxy}quinolin-2-yl)carbonyl]pyrrolidin-3-yl}-4-(trifluoromethyl)benzenesulfonamide] | > 20 | 
13 | N#Cc1ccc(Oc2ccc3nc(C(=O)N[C@@H]4CCCC[C@@H]4O)ccc3c2)cc1 [Example 119, 6-(4-cyanophenoxy)-N-[(1R,2S)-2-hydroxycyclohexyl]quinoline-2-carboxamide] |  | 0.819
14 | CC1(O)CC(NC(=O)c2ccc3cc(Oc4ccc(C(F)(F)F)cn4)ccc3n2)C1 (stereo not drawn) [Example 426, N-(3-hydroxy-3-methylcyclobutyl)-6-{[5-(trifluoromethyl)pyridin-2-yl]oxy}quinoline-2-carboxamide] | 0.972 | 
15 | COC(=O)CS(=O)(=O)N1CCN(C(=O)c2ccc3cc(Oc4ccc(C(F)(F)F)cn4)ccc3n2)CC1 [Example 382, methyl ({4-[(6-{[5-(trifluoromethyl)pyridin-2-yl]oxy}quinolin-2-yl)carbonyl]piperazin-1-yl}sulfonyl)acetate] | 1.82 | 
16 | COCCN(C)C(=O)c1ccc2cc(Oc3ccc(C(F)(F)F)cn3)ccc2n1 [Example 392, N-(2-methoxyethyl)-N-methyl-6-{[5-(trifluoromethyl)pyridin-2-yl]oxy}quinoline-2-carboxamide] |  | 7.96
17 | CC1(O)CCN(C(=O)CNC(=O)c2ccc3cc(Oc4ccc(C(F)(F)F)cn4)ccc3n2)C1 (stereo not drawn) [Example 561, N-[2-(3-hydroxy-3-methylpyrrolidin-1-yl)-2-oxoethyl]-6-{[5-(trifluoromethyl)pyridin-2-yl]oxy}quinoline-2-carboxamide] | 3.47 | 
18 | O=C(NC1CC[S+]([O-])CC1)c1ccc2cc(Oc3ccc(C(F)F)cn3)ccc2n1 (stereo not drawn) [Example 481, 6-{[5-(difluoromethyl)pyridin-2-yl]oxy}-N-(1-oxidotetrahydro-2H-thiopyran-4-yl)quinoline-2-carboxamide] | 2.63 | 

Row | SMILES | IC50 [1] [µM] | IC50 [µM]
19 | O=C(c1ccc2cc(Oc3ccc(C(F)(F)F)cn3)ccc2n1)N1CCOC(CF)C1 (stereo not drawn) [Example 340, [2-(fluoromethyl)morpholin-4-yl](6-{[5-(trifluoromethyl)pyridin-2-yl]oxy}quinolin-2-yl)methanone] | 2.9 | 
20 | CN(C)C(=O)CN(C)C(=O)c1ccc2cc(Oc3ccc(C(F)(F)F)cn3)ccc2n1 [Example 413, N-[2-(dimethylamino)-2-oxoethyl]-N-methyl-6-{[5-(trifluoromethyl)pyridin-2-yl]oxy}quinoline-2-carboxamide] | 12.4 | 
21 | CC(O)CNC(=O)c1ccc2cc(Oc3ccc(C#N)cc3)ccc2n1 (stereo not drawn) [Example 128, 6-(4-cyanophenoxy)-N-(2-hydroxypropyl)quinoline-2-carboxamide] |  | 2.85
22 | O=C(c1ccc2cc(Oc3ccc(C(F)(F)F)cn3)ccc2n1)N1C[C@@H](F)C[C@@H]1c1cc(F)ccc1F [Example 179, [(2R,4S)-2-(2,5-difluorophenyl)-4-fluoropyrrolidin-1-yl](6-{[5-(trifluoromethyl)pyridin-2-yl]oxy}quinolin-2-yl)methanone] | 0.684 | 
23 | O=C(NCC(=O)N1C[C@H](O)[C@@H](O)C1)c1ccc2cc(Oc3ccc(C(F)(F)F)cn3)ccc2n1 [Example 562, N-{2-[(3S,4S)-3,4-dihydroxypyrrolidin-1-yl]-2-oxoethyl}-6-{[5-(trifluoromethyl)pyridin-2-yl]oxy}quinoline-2-carboxamide] | > 20 | 
24 | O=C(c1ccc2cc(Oc3ccc(C(F)(F)F)cn3)ccc2n1)N1CC2(COC2)C1 [Example 156, 2-oxa-6-azaspiro[3.3]hept-6-yl(6-{[5-(trifluoromethyl)pyridin-2-yl]oxy}quinolin-2-yl)methanone] |  | > 20
25 | O=C(NC1C[S+]([O-])C1)c1ccc2cc(Oc3ccc(C(F)(F)F)cn3)ccc2n1 (stereo not drawn) [Example 503, N-(1-oxidothietan-3-yl)-6-{[5-(trifluoromethyl)pyridin-2-yl]oxy}quinoline-2-carboxamide] | 0.586 | 
26 | O=C(c1ccc2cc(Oc3ccc(C(F)F)cn3)ccc2n1)N1CCN[C@H](CO)C1 [Example 585, (6-{[5-(difluoromethyl)pyridin-2-yl]oxy}quinolin-2-yl) [(3S)-3-(hydroxymethyl)piperazin-1-yl]methanone] | > 20 | 
27 | CC(C)NC(=O)C1CN(C(=O)c2ccc3cc(Oc4ccc(C(F)(F)F)cn4)ccc3n2)CCN1 (stereo not drawn) [Example 321, N-isopropyl-4-[(6-{[5-(trifluoromethyl)pyridin-2-yl]oxy}quinolin-2-yl)carbonyl]piperazine-2-carboxamide] | 8.07 | 
28 | O=C(c1ccc2cc(Oc3ccc(C(F)(F)F)cn3)ccc2n1)N1CCN2C(=O)CCC2C1 (stereo not drawn) [Example 288, 2-[(6-{[5-(trifluoromethyl)pyridin-2-yl]oxy}quinolin-2-yl)carbonyl]hexahydropyrrolo[1,2-a]pyrazin-6(2H)-one] | 7.88 | 
29 | COCCNC(=O)CN(C)C(=O)c1ccc2cc(Oc3ccc(C(F)F)cn3)ccc2n1 [Example 457, 6-{[5-(difluoromethyl)pyridin-2-yl]oxy}-N-{2-[(2-methoxyethyl)amino]-2-oxoethyl}-N-methylquinoline-2-carboxamide] | > 20 | 
30 | O=C(c1ccc2cc(Oc3ccc(C(F)(F)F)cn3)ccc2n1)N1CCN2C(=O)OC[C@H]2C1 [Example 333, (8aR)-7-[(6-{[5-(trifluoromethyl)pyridin-2-yl]oxy}quinolin-2-yl)carbonyl]hexahydro[1,3]oxazolo[3,4-a]pyrazin-3-one] | > 20 | 
31 | CN1CCN(C(=O)c2ccc3cc(Oc4ccc(C(F)(F)F)cn4)ccc3n2)CC1=O [Example 450, 1-methyl-4-[(6-{[5-(trifluoromethyl)pyridin-2-yl]oxy}quinolin-2-yl)carbonyl]piperazin-2-one] | 3.58 | 
32 | O=C(NCCN1CCNC1=O)c1ccc2cc(Oc3ccc(C(F)(F)F)cn3)ccc2n1 [Example 421, N-[2-(2-oxoimidazolidin-1-yl)ethyl]-6-{[5-(trifluoromethyl)pyridin-2-yl]oxy}quinoline-2-carboxamide] | 1.06 | 
33 | CN(C(=O)c1ccc2cc(Oc3ccc(C(F)(F)F)cn3)ccc2n1)C1CCOCC1 [Example 411, N-methyl-N-(tetrahydro-2H-pyran-4-yl)-6-{[5-(trifluoromethyl)pyridin-2-yl]oxy}quinoline-2-carboxamide] | 14.1 | 
34 | O=C(c1ccc2cc(Oc3ccc(C(F)(F)F)cn3)ccc2n1)N1CC=CC1 [Example 220, 2,5-dihydro-1H-pyrrol-1-yl(6-{[5-(trifluoromethyl)pyridin-2-yl]oxy}quinolin-2-yl)methanone] | 2 | 
35 | COCCCNC(=O)c1ccc2cc(Oc3ccc(C(F)(F)F)cn3)ccc2n1 [Example 599, N-(3-methoxypropyl)-6-{[5-(trifluoromethyl)pyridin-2-yl]oxy}quinoline-2-carboxamide] | 1.59 | 
36 | Cc1nc(CN2CCN(C(=O)c3ccc4cc(Oc5ccc(C(F)(F)F)cn5)ccc4n3)CC2)co1 [Example 531, {4-[(2-methyl-1,3-oxazol-4-yl)methyl]piperazin-1-yl}(6-{[5-(trifluoromethyl)pyridin-2-yl]oxy}quinolin-2-yl)methanone] | 3.57 | 
